Values belong to the molecule of their own block, whether it stands above or below them.
Test system: 653999-131-R-J2-PDC complex spheroids, growth inhibition
Test: Anticancer human tumor 653999-131-R-J2-PDC patient-derived lung adenocarcinoma cell line growth inhibition [RAS]
Settings: for IC50: curve of first compound; for viability, T/C: stronger effect = lower value
Source text: RAS pathway inhibitors in Combinations in Complex Spheroids
A high-throughput screen of multi-cell type tumor spheroids was designed to identify active combinations of RAS pathway inhibitors and targeted small molecules. Complex spheroids include a stromal component modeled by human endothelial cells (HUVEC) and fibroblasts modeled by human mesenchymal stem cells (MSCs). The concentration ranges selected for each drug and investigational agent were based upon clinically achievable concentrations if the clinical Cmax of the agent was known.
Compounds. The drugs and investigational agents: abemaciclib (NSC768073), cobimetinib (NSC768068), divarasib (GDC6063, NSC841802), docetaxel (NSC628503), GDC-1971 (RLY-1971, NSC841576), gemcitabine (NSC613327), inavolisib (NSC800729), ipatasertib (NSC767898), KB-0742 (NSC834161), MRTX-1133 (NSC836407), osimertinib (NSC779217), RMC-4630 (NSC839698), RMC-6236 (NSC851965), RMC-6291 (NSC852671), Ro-3306 (NSC812927), sapanisertib (NSC764658), SN-38 (NSC673596), staurosporine (NSC755774), SY5609 (NSC837396), and tovorafenib (DAY101, NSC766906), were obtained from the National Cancer Institute (NCI) Developmental Therapeutics Program Chemical Repository. The FDA-approved anticancer drug set is available from the NCI Developmental Therapeutics Program. […] The stock solutions were prepared in dimethyl sulfoxide (DMSO, Sigma-Aldrich, St. Louis, MO, cat. D2650) at 800-fold the tested concentration and stored at -70 degrees C prior to their use. All drugs and investigational agents were tested over a range starting from a high concentration at or near the clinical Cmax and decreasing in half-log increments. If the clinical Cmax for an agent had not been determined, the highest concentration tested was 10 microM.
Cell Culture. All cells were maintained in an incubator at 37 degrees C and 5% CO2 with 95% humidity. The PDC lines were cultured according to standard operating procedures established by the NCI PDMR. All PDCs were thawed and cultured in Matrigel-coated flasks prepared with a working solution of 1X Ham's F-12 nutrient mix, without supplementation (Invitrogen, Waltham, MA, cat. 11765054), 100 U/mL penicillin-streptomycin (Invitrogen, cat. 15140122), and 2.5% Matrigel (Corning Inc., Corning, NY, cat. 354248) for the first three passages. The 362531-283-R-J2-PDC and 782815-120-R-J1-PDC lines were cultured in 6C/Colon 1B media, which includes advanced DMEM/F-12 (Thermo Fisher Scientific, cat. 12634028), 10 mM HEPES (Thermo Fisher Scientific, cat. 15630080), 1X GlutaMAX supplement (Thermo Fisher Scientific, cat. 35050061), 0.1 mg/mL primocin (InvivoGen, San Diego, CA, cat. ant-pm-2), 10% defined fetal bovine serum, heat inactivated (HyClone Laboratories Inc., Logan, UT, cat. SH30070.03HI), 50% L-WRN conditioned media (ATCC, cat. CRL-3276), 1.25 mM N-Acetyl-L-cysteine (Sigma-Aldrich, cat. A9165), 10 mM nicotinamide (Sigma-Aldrich, cat. N0636), 1X B-27 supplement (Thermo Fisher Scientific, cat. 17504044), 1X N-2 supplement (Thermo Fisher Scientific, cat. 17502048), 50 ng/mL human EGF (Thermo Fisher Scientific, cat. PHG0311), and 10 microM Y-27632 dihydrochloride (Tocris Bioscience, cat. 1254). The K12877-001-R-J1-PDC line was cultured in 6I media, which includes all 6C/Colon 1B media plus 10 ng/mL human FGF-10 (PeproTech, cat. 100-26), 1 ng/mL human FGF-2 (PeproTech, cat. 100-18B), 1 µM prostaglandin E2 (Tocris Bioscience, cat. 2296), […] hydrocortisone (Sigma-Aldrich, cat. H4001), and […] bovine insulin (Sigma-Aldrich, cat. I6634). The K86415-001-R-J1-PDC line was cultured in 6D media, which includes all 6C/Colon 1B media components minus the L-WRN conditioned media. The 485176-168-R4-J1-PDC was cultured in PANC media, which includes all 6C/Colon 1B media plus 100 ng/mL human FGF-10 (PeproTech, cat. 100-26), 500 nM SB-431542 (Selleckchem, cat. S1067), and 10 nM gastrin (Tocris Bioscience, cat. 3006). […]

[1] = second compound 0.0316 µM, first compound 0.0316 µM
[2] = second compound 0.0316 µM, first compound 0.1 µM
[3] = second compound 0.1 µM, first compound 0.0316 µM
[4] = second compound 0.1 µM, first compound 0.1 µM
[5] = second compound 0.316 µM, first compound 0.0316 µM
[6] = second compound 0.316 µM, first compound 0.1 µM
[7] = second compound 1 µM, first compound 0.0316 µM
[8] = second compound 1 µM, first compound 0.1 µM
[9] = second compound 3.16 µM, first compound 0.0316 µM
[10] = second compound 3.16 µM, first compound 0.1 µM
[11] = second compound 10 µM, first compound 0.0316 µM
[12] = second compound 10 µM, first compound 0.1 µM
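Further: spheroids exposed to the agents for seven days before the readout.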

- IC50 (second compound 0.0316 µM): 13.6 nM
- IC50 (second compound 0.1 µM): 8.56 nM
- IC50 (second compound 0.316 µM): 2.52 nM
- IC50 (second compound 1 µM): < 0.316 nM
- IC50 (second compound 3.16 µM): < 0.316 nM
- IC50 (second compound 10 µM): < 0.316 nM
SMILES: CC(C)n1nc(-c2ccc3oc(N)nc3c2)c2c(N)ncnc21 + C#Cc1c(F)ccc2cc(O)cc(-c3ncc4c(N5CC6CCC(C5)N6)nc(OCC56CCCN5CC(F)C6)nc4c3F)c12
- viability, T/C (second compound 0.0316 µM, first compound 0.000316 µM): 97.1%
- viability, T/C (second compound 0.0316 µM, first compound 0.001 µM): 97.5%
- viability, T/C (second compound 0.0316 µM, first compound 0.00316 µM): 74.1%
- viability, T/C (second compound 0.0316 µM, first compound 0.01 µM): 57.8%
- viability, T/C [1]: 34.1%
- viability, T/C [2]: 24.7%
- viability, T/C (second compound 0.1 µM, first compound 0.000316 µM): 94.5%
- viability, T/C (second compound 0.1 µM, first compound 0.001 µM): 99.5%
- viability, T/C (second compound 0.1 µM, first compound 0.00316 µM): 68.3%
- viability, T/C (second compound 0.1 µM, first compound 0.01 µM): 49%
- viability, T/C [3]: 28.1%
- viability, T/C [4]: 21.3%
- viability, T/C (second compound 0.316 µM, first compound 0.000316 µM): 78%
- viability, T/C (second compound 0.316 µM, first compound 0.001 µM): 48.8%
- viability, T/C (second compound 0.316 µM, first compound 0.00316 µM): 57.9%
- viability, T/C (second compound 0.316 µM, first compound 0.01 µM): 35.3%
- viability, T/C [5]: 20.2%
- viability, T/C [6]: 16.2%
- viability, T/C (second compound 1 µM, first compound 0.000316 µM): 42.1%
- viability, T/C (second compound 1 µM, first compound 0.001 µM): 38.6%
- viability, T/C (second compound 1 µM, first compound 0.00316 µM): 32.3%
- viability, T/C (second compound 1 µM, first compound 0.01 µM): 27.1%
- viability, T/C [7]: 16.1%
- viability, T/C [8]: 10.1%
- viability, T/C (second compound 3.16 µM, first compound 0.000316 µM): 42%
- viability, T/C (second compound 3.16 µM, first compound 0.001 µM): 43.8%
- viability, T/C (second compound 3.16 µM, first compound 0.00316 µM): 24.3%
- viability, T/C (second compound 3.16 µM, first compound 0.01 µM): 20.1%
- viability, T/C [9]: 10.5%
- viability, T/C [10]: 8.31%
- viability, T/C (second compound 10 µM, first compound 0.000316 µM): 22.6%
- viability, T/C (second compound 10 µM, first compound 0.001 µM): 27.4%
- viability, T/C (second compound 10 µM, first compound 0.00316 µM): 17%
- viability, T/C (second compound 10 µM, first compound 0.01 µM): 11.6%
- viability, T/C [11]: 7.55%
- viability, T/C [12]: 5.84%

- IC50 (second compound 0.0316 µM): > 10000 nM
- IC50 (second compound 0.1 µM): > 10000 nM
- IC50 (second compound 0.316 µM): > 10000 nM
- IC50 (second compound 1 µM): > 10000 nM
- IC50 (second compound 3.16 µM): < 31.6 nM
- IC50 (second compound 10 µM): < 31.6 nM
SMILES: C[C@@H](NC(=O)c1ncnc(N)c1Cl)c1ncc(C(=O)Nc2cc(C(F)(F)F)c(Cl)cn2)s1 + C#Cc1c(F)ccc2cc(O)cc(-c3ncc4c(N5CC6CCC(C5)N6)nc(OCC56CCCN5CC(F)C6)nc4c3F)c12
- viability, T/C [1]: 102%
- viability, T/C [2]: 109%
- viability, T/C (second compound 0.0316 µM, first compound 0.316 µM): 102%
- viability, T/C (second compound 0.0316 µM, first compound 1 µM): 100%
- viability, T/C (second compound 0.0316 µM, first compound 3.16 µM): 100%
- viability, T/C (second compound 0.0316 µM, first compound 10 µM): 73.5%
- viability, T/C [3]: 91%
- viability, T/C [4]: 91.6%
- viability, T/C (second compound 0.1 µM, first compound 0.316 µM): 90%
- viability, T/C (second compound 0.1 µM, first compound 1 µM): 78.3%
- viability, T/C (second compound 0.1 µM, first compound 3.16 µM): 71%
- viability, T/C (second compound 0.1 µM, first compound 10 µM): 77.2%
- viability, T/C [5]: 77.2%
- viability, T/C [6]: 75%
- viability, T/C (second compound 0.316 µM, first compound 0.316 µM): 87.8%
- viability, T/C (second compound 0.316 µM, first compound 1 µM): 75%
- viability, T/C (second compound 0.316 µM, first compound 3.16 µM): 88.3%
- viability, T/C (second compound 0.316 µM, first compound 10 µM): 69.1%
- viability, T/C [7]: 44.5%
- viability, T/C [8]: 68.3%
- viability, T/C (second compound 1 µM, first compound 0.316 µM): 72.5%
- viability, T/C (second compound 1 µM, first compound 1 µM): 44.6%
- viability, T/C (second compound 1 µM, first compound 3.16 µM): 60.1%
- viability, T/C (second compound 1 µM, first compound 10 µM): 54.7%
- viability, T/C [9]: 40.3%
- viability, T/C [10]: 39.7%
- viability, T/C (second compound 3.16 µM, first compound 0.316 µM): 37%
- viability, T/C (second compound 3.16 µM, first compound 1 µM): 44.9%
- viability, T/C (second compound 3.16 µM, first compound 3.16 µM): 51.5%
- viability, T/C (second compound 3.16 µM, first compound 10 µM): 41.8%
- viability, T/C [11]: 22%
- viability, T/C [12]: 21.2%
- viability, T/C (second compound 10 µM, first compound 0.316 µM): 49.3%
- viability, T/C (second compound 10 µM, first compound 1 µM): 45.9%
- viability, T/C (second compound 10 µM, first compound 3.16 µM): 30.5%
- viability, T/C (second compound 10 µM, first compound 10 µM): 22%

Source: PubChem BioAssay AID2060886 (Molecular Pharmacology Branch, DTP, NCI, 2025)
